Test system: RSV A2
Assay: RSV inhibition (cytopathic effect) in HEp-2 cells using Viral ToxGlo assay
Assay type: cell-based
Conditions: human respiratory syncytial virus; RSV A2, HEp-2 cells, MOI 0.5, 72 h p.i.
Description: Protocol for Screening Antiviral Compounds for RSV Inhibition and Cytotoxicity Using Viral ToxGlo Assay
HEp-2 cells were maintained in Eagle's minimum essential medium (EMEM) with Earle's BSS adjusted to contain 2 mM L-glutamine, 10% fetal bovine serum, 100 U/ml penicillin and 100 μg/ml streptomycin. For the purposes of the screening assay they were grown to 90% confluency, trypsinized and recovered. The trypsin was neutralised with cell culture media and cells were centrifuged at 150×g for 5 minutes before discarding the supernatant and resuspending cell pellet in assay media (EMEM with Earle's BSS adjusted to contain 2 mM L-glutamine, 2% fetal bovine serum and 100 U/ml penicillin and 100 μg/ml streptomycin). The cells were seeded into white clear-bottomed cell culture plates at a density of 1.5×10^4 cells/well in 50 μl and 4×10^3 cells/well in 25 μl for 96 well plates and 384 well plates respectively. For the media/background control column assay media only was added. Cell plates were placed in a humid chamber and incubated overnight at 37° C./5% CO2. After overnight incubation cells were checked for confluency and healthy appearance.
Test articles were made up at 10× test concentration in a maximum DMSO concentration of 10% (final assay concentration maximal 1% DMSO) and added to the cell plates in volumes of 10 μl for 96 well plates and 5 μl for 384 well plates. For cell control and virus control wells the test article solvent only was added. Virus or assay media for cytotoxicity test wells and media/cell control wells was added immediately after test articles at an MOI of 0.5, 40 or 20 μl for 96 and 384 well plates respectively. Virus suspension was prepared by thawing RSV A2 frozen stocks and diluting to the required concentration of plaque forming units in assay media on ice.
Cell plates were further incubated inside a humid chamber for 72 h p.i at 37° C./5% CO2. After the incubation period cells were observed under the microscope to check for characteristic cytopathic effect in virus control wells and healthy cells in the cell control wells. After plates were adjusted to room temperature 20/40 μl Viral ToxGlo (Promega) was added to each well of the 384/96 well cell plates. Plates were incubated at room temperature, protected from light on a plate rocker for 20 minutes before measuring the luminescence on a spectrophotometer (Biotek Synergy HTX).

Structure (SMILES)	EC50
CC1(NC(=O)c2cccc(Nc3ccc(C(=O)/N=C4\NCCC(=O)N4)cc3C3CC3)c2)CC1 [compound 121, 3-cyclopropyl-4-({3-[(1-methylcyclopropyl)carbamoyl]phenyl}amino)-N-[(2E)-4-oxo-1,3-diazinan-2-ylidene]benzamide]	139 nM
CC(C)C(=O)Nc1cccc(Nc2ccc(C(=O)/N=C3\NCCC(=O)N3)cc2C2CC2)c1C1CC1 [compound 122, 3-cyclopropyl-4-{[2-cyclopropyl-3-(2-methylpropanamido)phenyl]amino}-N-[(2E)-4-oxo-1,3-diazinan-2-ylidene]benzamide]	141 nM
CC(C)(C)NC(=O)c1cccc(Nc2ccc(C(=O)N=C3NCCCN3)cc2C2CC2)c1 [compound 123, 4-{[3-(tert-butylcarbamoyl)phenyl]amino}-3-cyclopropyl-N-(1,3-diazinan-2-ylidene)benzamide]	147 nM
O=C(N=C1NCCCN1)c1ccc(Nc2cccc(OCC(F)(F)F)c2)c(C2CC2)c1 [compound 124, 3-cyclopropyl-N-(1,3-diazinan-2-ylidene)-4-{[3-(2,2,2-trifluoroethoxy)phenyl]amino}benzamide]	150 nM
O=C(N=C1NCCCN1)c1ccc(Nc2cccc(OCC(F)F)c2)c(C2CC2)c1 [compound 125, 3-cyclopropyl-N-(1,3-diazinan-2-ylidene)-4-{[3-(2,2-difluoroethoxy)phenyl]amino}benzamide]	151 nM
O=C(N=C1NCCCN1)c1ccc(Nc2cccc(C(=O)NCCC3CCOCC3)c2)c(C2CC2)c1 [compound 126, 3-cyclopropyl-N-(1,3-diazinan-2-ylidene)-4-[(3-{[2-(oxan-4-yl)ethyl]carbamoyl}phenyl)amino]benzamide]	165 nM
O=C(N=C1NCCCN1)c1ccc(Nc2cccc(OCC3CCCCC3)c2)c(C2CC2)c1 [compound 127, 4-{[3-(cyclohexylmethoxy)phenyl]amino}-3-cyclopropyl-N-(1,3-diazinan-2-ylidene)benzamide]	172 nM
Cc1c(NC(=O)CCC(C)C)cccc1Nc1ccc(C(=O)N=C2NCCCN2)cc1C1CC1 [compound 128, 3-cyclopropyl-N-(1,3-diazinan-2-ylidene)-4-{[2-methyl-3-(4-methylpentanamido)phenyl]amino}benzamide]	209 nM
O=C(N=C1NCCCN1)c1ccc(Nc2cccc(OC3CCC3)c2)c(C2CC2)c1 [compound 129, 4-[(3-cyclobutoxyphenyl)amino]-3-cyclopropyl-N-(1,3-diazinan-2-ylidene)benzamide]	223 nM
O=C(N=C1NCCCN1)c1ccc(Nc2cccc(OCCC3CCCCC3)c2)c(C2CC2)c1 [compound 130, 4-{[3-(2-cyclohexylethoxy)phenyl]amino}-3-cyclopropyl-N-(1,3-diazinan-2-ylidene)benzamide]	234 nM
CC(C)CNC(=O)c1cccc(Nc2ccc(C(=O)N=C3NCCCN3)cc2C2CC2)c1 [compound 131, 3-cyclopropyl-N-(1,3-diazinan-2-ylidene)-4-({3-[(2-methylpropyl)carbamoyl]phenyl}amino)benzamide]	246 nM
CC(C)CCCOc1cccc(Nc2ccc(C(=O)N=C3NCCCN3)cc2C2CC2)c1 [compound 132, 3-cyclopropyl-N-(1,3-diazinan-2-ylidene)-4-({3-[(4-methylpentyl)oxy]phenyl}amino)benzamide]	259 nM
O=C(N=C1NCCCN1)c1ccc(Nc2cccc(C(=O)NCC(F)(F)F)c2)c(C2CC2)c1 [compound 133, 3-cyclopropyl-N-(1,3-diazinan-2-ylidene)-4-({3-[(2,2,2-trifluoroethyl)carbamoyl]phenyl}amino)benzamide]	261 nM
O=C1CCN/C(=N\C(=O)c2ccc(Nc3cccc(OCC4CCCOC4)c3)c(C3CC3)c2)N1 (stereo not shown) [compound 134, 3-cyclopropyl-4-({3-[(oxan-3-yl)methoxy]phenyl}amino)-N-[(2E)-4-oxo-1,3-diazinan-2-ylidene]benzamide]	265 nM
Cc1c(N)cccc1Nc1ccc(C(=O)N=C2NCCCN2)cc1C1CC1 [compound 135, 4-[(3-amino-2-methylphenyl)amino]-3-cyclopropyl-N-(1,3-diazinan-2-ylidene)benzamide]	286 nM
O=C(N=C1NCCCN1)c1ccc(Nc2cccc(C(=O)N3CC4CC4C3)c2)c(C2CC2)c1 (stereo not shown) [compound 136, 4-[(3-{3-azabicyclo[3.1.0]hexane-3-carbonyl}phenyl)amino]-3-cyclopropyl-N-(1,3-diazinan-2-ylidene)benzamide]	298 nM

Structure (SMILES)	EC50
O=C(N=C1NCCCN1)c1ccc(Nc2cccc(OC(F)(F)F)c2)c(C2CC2)c1 [compound 137, 3-cyclopropyl-N-(1,3-diazinan-2-ylidene)-4-{[3-(trifluoromethoxy)phenyl]amino}benzamide]	304 nM
O=C(N=C1NCCCN1)c1ccc(Nc2ccnc(C(=O)NCCC3CCCCC3)c2)c(C2CC2)c1 [compound 138, N-(2-cyclohexylethyl)-4-({2-cyclopropyl-4-[(1,3-diazinan-2-ylidene)carbamoyl]phenyl}amino)pyridine-2-carboxamide]	310 nM
CC(C)OCCOc1cccc(Nc2ccc(C(=O)N=C3NCCCN3)cc2C2CC2)c1 [compound 139, 3-cyclopropyl-N-(1,3-diazinan-2-ylidene)-4-({3-[2-(propan-2-yloxy)ethoxy]phenyl}amino)benzamide]	340 nM
O=C(N=C1NCCCN1)c1ccc(Nc2cccc(OCCCCC3CCCCC3)c2)c(C2CC2)c1 [compound 140, 4-{[3-(4-cyclohexylbutoxy)phenyl]amino}-3-cyclopropyl-N-(1,3-diazinan-2-ylidene)benzamide]	368 nM
Cc1c(Nc2ccc(C(=O)N=C3NCCCN3)cc2C2CC2)cccc1-c1ncc(Cl)[nH]1 [compound 141, 4-{[3-(5-chloro-1H-imidazol-2-yl)-2-methylphenyl]amino}-3-cyclopropyl-N-(1,3-diazinan-2-ylidene)benzamide]	370 nM
O=C(N=C1NCCCN1)c1ccc(Nc2cccc(S(=O)(=O)CCCC3CCCCC3)c2)c(C2CC2)c1 [compound 143, 4-{[3-(3-cyclohexylpropanesulfonyl)phenyl]amino}-3-cyclopropyl-N-(1,3-diazinan-2-ylidene)benzamide]	398 nM
O=C(N=C1NCCCN1)c1ccc(Nc2cccc(OC3COC3)c2)c(C2CC2)c1 [compound 144, 3-cyclopropyl-N-(1,3-diazinan-2-ylidene)-4-{[3-(oxetan-3-yloxy)phenyl]amino}benzamide]	413 nM
O=C1CCN/C(=N\C(=O)c2ccc(Nc3cccc(C(=O)NC4CC4)c3)c(C3CC3)c2)N1 [compound 145, 3-cyclopropyl-4-{[3-(cyclopropylcarbamoyl)phenyl]amino}-N-[(2E)-4-oxo-1,3-diazinan-2-ylidene]benzamide]	421 nM
O=C1CCN/C(=N\C(=O)c2ccc(Nc3cccc(OCC4CCOCC4)c3)c(C3CC3)c2)N1 [compound 146, 3-cyclopropyl-4-({3-[(oxan-4-yl)methoxy]phenyl}amino)-N-[(2E)-4-oxo-1,3-diazinan-2-ylidene]benzamide]	439 nM
CC(C)CCNC(=O)c1ccccc1Nc1ccc(C(=O)N=C2NCCCN2)cc1C1CC1 [compound 147, 3-cyclopropyl-N-(1,3-diazinan-2-ylidene)-4-({2-[(3-methylbutyl)carbamoyl]phenyl}amino)benzamide]	460 nM
O=C(CCC1CCCCC1)Nc1cc(Nc2ccc(C(=O)N=C3NCCCN3)cc2C(F)(F)F)ccc1F [compound 148, 4-{[3-(3-cyclohexylpropanamido)-4-fluorophenyl]amino}-N-(1,3-diazinan-2-ylidene)-3-(trifluoromethyl)benzamide]	463 nM
O=C(N=C1NCCCN1)c1ccc(Nc2cccc(-c3nnn(CCCC4CCCCC4)n3)c2)c(C2CC2)c1 [compound 149, 4-({3-[2-(3-cyclohexylpropyl)-2H-1,2,3,4-tetrazol-5-yl]phenyl}amino)-3-cyclopropyl-N-(1,3-diazinan-2-ylidene)benzamide]	494 nM
O=C1CCN/C(=N\C(=O)c2ccc(Nc3cccc(OCCC4COCCO4)c3)c(C3CC3)c2)N1 (stereo not shown) [compound 150, 3-cyclopropyl-4-({3-[2-(1,4-dioxan-2-yl)ethoxy]phenyl}amino)-N-[(2E)-4-oxo-1,3-diazinan-2-ylidene]benzamide]	512 nM
O=C1CCN/C(=N\C(=O)c2ccc(Nc3cccc(OCC4CCCCO4)c3)c(C3CC3)c2)N1 (stereo not shown) [compound 151, 3-cyclopropyl-4-({3-[(oxan-2-yl)methoxy]phenyl}amino)-N-[(2E)-4-oxo-1,3-diazinan-2-ylidene]benzamide]	525 nM
O=C(N=C1NCCCN1)c1ccc(Nc2cccc(C(=O)NC3CC(F)(F)C3)c2)c(C2CC2)c1 [compound 152, 3-cyclopropyl-N-(1,3-diazinan-2-ylidene)-4-({3-[(3,3-difluorocyclobutyl)carbamoyl]phenyl}amino)benzamide]	593 nM
